Data on 15 compounds can be found in PubChem BioAssay AID330 (DTP/NCI, 2004).

Values joined by “and” are separate entries in the source; they are usually repeats but may differ in a detail not shown here. Identical values can stand only once. Toxic doses and inconclusive results are not listed.

The subject of the test is P388 leukemia ip, CD2F1 mice, survival T/C. Nature of the test: NCI In Vivo Anticancer Drug Screen. Data for tumor model P388 Leukemia (intraperitoneal) in CD2F1 (CDF1) mice. The settings on record: endpoint: median survival time, higher = longer survival. An outline of the steps:
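Mice carrying the transplanted tumor received test compound or vehicle. Survival was recorded in each group, and the value is the treated-group measurement divided by that of the vehicle-treated control group.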

Where [1] appears, read: dose: 25.0 mg/kg/injection, schedule: Q01DX009 (ip), vehicle: saline with Tween-80.
Setting [2] is: dose: 50.0 mg/kg/injection, schedule: Q01DX009 (ip), vehicle: saline with Tween-80.
The mark [3] stands for this setting: dose: 100.0 mg/kg/injection, schedule: Q01DX009 (ip), vehicle: saline with Tween-80.
Setting [4] is: dose: 60.0 mg/kg/injection, schedule: Q01DX005 (ip), vehicle: Klucel (hydroxypropylcellulose) (HPC).
Where [5] appears, read: dose: 120.0 mg/kg/injection, schedule: Q01DX005 (ip), vehicle: Klucel (hydroxypropylcellulose) (HPC).
Where [6] appears, read: dose: 240.0 mg/kg/injection, schedule: Q01DX005 (ip), vehicle: Klucel (hydroxypropylcellulose) (HPC).
The mark [7] stands for this setting: dose: 50.0 mg/kg/injection, schedule: Q01DX005 (ip), vehicle: saline with Tween-80.
[8] abbreviates: dose: 100.0 mg/kg/injection, schedule: Q01DX005 (ip), vehicle: saline with Tween-80.
Setting [9] is: dose: 200.0 mg/kg/injection, schedule: Q01DX005 (ip), vehicle: saline with Tween-80.
[10] abbreviates: dose: 25.0 mg/kg/injection, schedule: Q01DX005 (ip), vehicle: Klucel (hydroxypropylcellulose) (HPC).
The mark [11] stands for this setting: dose: 50.0 mg/kg/injection, schedule: Q01DX005 (ip), vehicle: Klucel (hydroxypropylcellulose) (HPC).
Setting [12] is: dose: 100.0 mg/kg/injection, schedule: Q01DX001 (ip), vehicle: saline with Tween-80.
[13] abbreviates: dose: 200.0 mg/kg/injection, schedule: Q01DX001 (ip), vehicle: saline with Tween-80.
Setting [14] is: dose: 400.0 mg/kg/injection, schedule: Q01DX001 (ip), vehicle: saline with Tween-80.
[15] abbreviates: dose: 60.0 mg/kg/injection, schedule: Q01DX005 (ip), vehicle: saline with Tween-80.

For `CN1COc2c(Cl)cc(Cl)cc2C1`, the T/C is, setting by setting: under setting [1], 95 % of control; under setting [2], 90 % of control; under setting [3], 86 % of control.

As for `CCCCOCC1CO1` (stereo not drawn), the T/C is 100 % of control under setting [1]; 100 % of control under setting [2]; 95 % of control under setting [3]; 90 % of control (dose: 200.0 mg/kg/injection, schedule: Q01DX009 (ip), vehicle: saline with Tween-80).

For the compound `CN(C)C(=O)c1ccccc1SC(=S)NCc1ccccc1`, the T/C was 102 % of control under setting [4], 102 % of control under setting [5] and 102 % of control under setting [6].

As for `O=c1c(-c2ccc(O)cc2)coc2c(C3OC(CO)C(O)C(O)C3O)c(O)ccc12` (stereo not drawn), the T/C runs as follows: under setting [7], 104 % of control; under setting [8], 101 % of control; under setting [9], 93 % of control.

In the case of `CC(=O)OCC1=COC(OC(=O)CC(C)(C)OC(C)=O)C2C1=CC(OC(=O)CC(C)C)[C@@]21CO1` (stereo partly drawn), the T/C was 97 % of control (dose: 10.0 mg/kg/injection, schedule: Q01DX005 (ip), vehicle: saline); 93 % of control (dose: 20.0 mg/kg/injection, schedule: Q01DX005 (ip), vehicle: saline); 99 % of control (dose: 40.0 mg/kg/injection, schedule: Q01DX005 (ip), vehicle: saline).

In the case of `COC(=O)c1ccnc2nc[nH]c12`, the T/C runs as follows: (dose: 100.0 mg/kg/injection, schedule: Q01DX001 (ip), vehicle: water) 103 % of control; (dose: 200.0 mg/kg/injection, schedule: Q01DX001 (ip), vehicle: water) 104 % of control; (dose: 400.0 mg/kg/injection, schedule: Q01DX001 (ip), vehicle: water) 104 % of control.

In the case of `CN(CCCCC1CCCN(C(=O)c2ccccc2)C1)C(=O)c1ccccc1` (stereo not drawn), the T/C runs as follows: (dose: 12.5 mg/kg/injection, schedule: Q01DX005 (ip), vehicle: Klucel (hydroxypropylcellulose) (HPC)) 96 % of control; under setting [10], 94 % of control; under setting [11], 103 % of control and 97 % of control.

Turning to `COC(=O)Cn1/c(=N\N=C\c2ccc(OC)cc2)sc2ccccc21`, the T/C runs as follows: under setting [12], 101 % of control; under setting [13], 101 % of control; under setting [14], 92 % of control.

Turning to `N#CC1[C@@H](C(=O)c2ccccc2)N2C=Cc3ccccc3[C@@H]2[C@H]1C#N` (stereo partly drawn), the T/C under setting [15] is 90 % of control.

Turning to `C#Cc1cccc(NC(=O)c2ccc(Cl)cc2Cl)c1`, the T/C runs as follows: under setting [4], 100 % of control; under setting [5], 104 % of control; under setting [6], 105 % of control.

With `O=C1NC(=O)C2C3C=CC(C12)C1C2C(=O)NC(=O)C2C31` (stereo not drawn), the T/C reads like this: (dose: 12.5 mg/kg/injection, schedule: Q01DX009 (ip), vehicle: distilled water + Tween-80) 116 % of control; (dose: 25.0 mg/kg/injection, schedule: Q01DX009 (ip), vehicle: distilled water + Tween-80) 153 % of control; (dose: 30.0 mg/kg/injection, schedule: Q01DX009 (ip), vehicle: water) 163 % of control; (dose: 50.0 mg/kg/injection, schedule: Q01DX009 (ip), vehicle: distilled water + Tween-80) 193 % of control; under setting [12], 96 % of control; under setting [13], 109 % of control. For the same compound, the T/C under setting [14] was 119 % of control.

With `O=C1/C(=C\O)C2CCC3CCC4CC1C342` (stereo not drawn), the T/C under setting [10] is 103 % of control; the T/C under setting [11] is 97 % of control; the T/C (dose: 100.0 mg/kg/injection, schedule: Q01DX005 (ip), vehicle: Klucel (hydroxypropylcellulose) (HPC)) was 107 % of control.

`O=C([O-])[O-].O=S(=O)(O)O.[Co+3].[NH-]CC[NH-].[NH-]CC[NH-]`: the T/C (dose: 50.0 mg/kg/injection, schedule: Q01DX009 (ip), vehicle: saline) was 90 % of control; the T/C (dose: 100.0 mg/kg/injection, schedule: Q01DX009 (ip), vehicle: saline) is 93 % of control; the T/C (dose: 200.0 mg/kg/injection, schedule: Q01DX009 (ip), vehicle: saline) was 94 % of control.

`COc1ccc(-c2cn(-c3ccc(I)cc3)c3ncnc(N)c23)cc1`: the T/C runs as follows: under setting [15], 99 % of control; (dose: 120.0 mg/kg/injection, schedule: Q01DX005 (ip), vehicle: saline with Tween-80) 105 % of control; (dose: 240.0 mg/kg/injection, schedule: Q01DX005 (ip), vehicle: saline with Tween-80) 90 % of control.

Consider `Cc1cn(C2CC(O)C(C(=O)Nc3ccc(C(=O)CCl)cc3)O2)c(=O)[nH]c1=O` (stereo not drawn), for which the T/C is, setting by setting: under setting [7], 108 % of control; under setting [8], 114 % of control; under setting [9], 109 % of control.
